Patent US20060003399A1, “High throughput actin polymerization assay” (Cytokinetics, Inc., priority 2004, published 2006)

Test system: PMA-treated THP-1 cells
Test: Macrophage podosome formation assay
Format: cell-based, human
Details: FIG. 13
Procedure: Positive hits from the in vitro screening assays are tested for effects on macrophage podosome formation. Macrophages express Arp2/3 and WASP, the latter of which is required for podosome formation. A typical cell-based secondary assay of this type includes the human monocytic cell ine THP-1, which undergoes macrophage differentiation and podosome formation in response to exposure to the phorbol ester, phorbol-12-myristate-13-acetate (PMA) (50 nM). A nuclear stain and an actin stain are used to detect and quantify the number of podosomes/cell in the absence or presence of positive hits from the in vitro screening assays. An example of the use of this assay is provided in Example 14 and is illustrated in FIG. 13.
In this assay, positive hits from the in vitro screening assays are tested for effects on macrophage podosome formation. […] A nuclear stain and an actin stain are used to quantify the number of podosomes/cell in a culture of differentiated THP-1 cells in the absence or presence of positive hits from the in vitro screening assays. […]
Podosomes in the THP-1 cells were visualized using a nuclear stain and an actin stain as follows. […] The fraction of THP-1 cells positive for podosomes was quantified using Image Express software (Molecular Devices, Inc.). […]

Structure (SMILES): COC(=O)Nc1nc2ccc(C(=O)c3cccs3)cc2[nH]1 [nocodazole]
- podosome formation (fraction of THP-1 cells positive for podosomes), in words: prevented podosome formation in PMA-treated THP-1 cells in a dose-dependent manner
